How the values were obtained:
[1] = molecular target: Serine/threonine-protein kinase Nek10 (Homo sapiens) (UniProt Q6ZWH5); details: Compound concentration 1000.0 nM
[2] = molecular target: Histamine H1 receptor (Homo sapiens, UniProt P35367); details: Compound concentration 10.0 uM
[3] = molecular target: Ribosomal protein S6 kinase alpha-5 (Homo sapiens) (UniProt O75582); details: Compound concentration 1000.0 nM
[4] = molecular target: STE20-like serine/threonine-protein kinase (Homo sapiens) (UniProt Q9H2G2); details: Compound concentration 1000.0 nM
[5] = molecular target: Calcium/calmodulin-dependent protein kinase type II subunit gamma (Homo sapiens) (UniProt Q13555); details: Compound concentration 1000.0 nM
[6] = molecular target: Protein-tyrosine kinase 6 (Homo sapiens) (UniProt Q13882); details: Compound concentration 1000.0 nM
[7] = molecular target: Serine/threonine-protein kinase PLK1 (Homo sapiens) (UniProt P53350); details: Compound concentration 1000.0 nM
[8] = molecular target: Serine/threonine-protein kinase WNK2 (Homo sapiens) (UniProt Q9Y3S1); details: Compound concentration 1000.0 nM
[9] = molecular target: Ribosomal protein S6 kinase alpha-1 (Homo sapiens) (UniProt Q15418); details: Compound concentration 1000.0 nM
[10] = molecular target: MAP kinase-interacting serine/threonine-protein kinase 2 (Homo sapiens) (UniProt Q9HBH9); details: Compound concentration 1000.0 nM
[11] = tested on: Tyrosine-protein kinase ABL1 (Homo sapiens), P00519 [M351T]; details: Compound concentration 1000.0 nM
[12] = molecular target: Wee1-like protein kinase (Homo sapiens) (UniProt P30291); details: Compound concentration 1000.0 nM
[13] = molecular target: Mitogen-activated protein kinase 7 (Homo sapiens) (UniProt Q13164); details: Compound concentration 1000.0 nM
[14] = molecular target: Ephrin type-B receptor 6 (Homo sapiens) (UniProt O15197); details: Compound concentration 1000.0 nM
[15] = molecular target: 5-hydroxytryptamine receptor 1E (Homo sapiens) (UniProt P28566); details: Compound concentration 10.0 uM
[16] = molecular target: Mitogen-activated protein kinase 14 (Homo sapiens) (UniProt Q16539); details: Compound concentration 1000.0 nM
[17] = molecular target: MAP kinase-interacting serine/threonine-protein kinase 1 (Homo sapiens) (UniProt Q9BUB5); details: Compound concentration 1000.0 nM
[18] = molecular target: Serine/threonine-protein kinase TAO2 (Homo sapiens) (UniProt Q9UL54); details: Compound concentration 1000.0 nM
[19] = molecular target: Casein kinase I isoform gamma-1 (Homo sapiens) (UniProt Q9HCP0); details: Compound concentration 1000.0 nM
[20] = molecular target: GABA-A receptor; anion channel (Rattus norvegicus) (UniProt O09028+P15431+P18506+P18508+P19969+P20236+P23574+P23576+P28471+P28473+P30191+P62813+P63079+P63138+Q91ZM7+Q9ES14); details: Compound concentration 10.0 uM
[21] = molecular target: Ephrin type-A receptor 1 (Homo sapiens) (UniProt P21709); details: Compound concentration 1000.0 nM
[22] = molecular target: Serine/threonine-protein kinase PAK 3 (Homo sapiens) (UniProt O75914); details: Compound concentration 1000.0 nM
[23] = molecular target: Homeodomain-interacting protein kinase 3 (Homo sapiens) (UniProt Q9H422); details: Compound concentration 1000.0 nM
[24] = molecular target: Activin receptor type-1-like (Homo sapiens) (UniProt P37023); details: Compound concentration 1000.0 nM
[25] = tested on: Tyrosine-protein kinase ABL1 (Homo sapiens), P00519 [Q252H]; details: Compound concentration 1000.0 nM
[26] = molecular target: Mitogen-activated protein kinase kinase kinase 11 (Homo sapiens) (UniProt Q16584); details: Compound concentration 1000.0 nM
[27] = molecular target: Ribosomal protein S6 kinase alpha-3 (Homo sapiens) (UniProt P51812); details: Compound concentration 1000.0 nM
[28] = molecular target: Serine/threonine-protein kinase PAK 1 (Homo sapiens) (UniProt Q13153); details: Compound concentration 1000.0 nM
[29] = tested on: Proto-oncogene tyrosine-protein kinase receptor Ret (Homo sapiens), P07949 [V804M]; details: Compound concentration 1000.0 nM
[30] = molecular target: MAP kinase-activated protein kinase 2 (Homo sapiens) (UniProt P49137); details: Compound concentration 1000.0 nM
[31] = molecular target: RAC-beta serine/threonine-protein kinase (Homo sapiens) (UniProt P31751); details: Compound concentration 1000.0 nM
[32] = molecular target: Serine/threonine-protein kinase RIO2 (Homo sapiens) (UniProt Q9BVS4); details: Compound concentration 1000.0 nM
[33] = molecular target: Mitogen-activated protein kinase kinase kinase 1 (Homo sapiens) (UniProt Q13233); details: Compound concentration 1000.0 nM
[34] = molecular target: Non-receptor tyrosine-protein kinase TYK2 (Homo sapiens) (UniProt P29597); details: Compound concentration 1000.0 nM
[35] = molecular target: Mitogen-activated protein kinase kinase kinase 3 (Homo sapiens) (UniProt Q99759); details: Compound concentration 1000.0 nM
[36] = molecular target: G protein-coupled receptor kinase 3 (Homo sapiens) (UniProt P35626); details: Compound concentration 1000.0 nM
[37] = molecular target: Beta-adrenergic receptor kinase 1 (Homo sapiens) (UniProt P25098); details: Compound concentration 1000.0 nM
[38] = molecular target: Dual specificity protein kinase CLK4 (Homo sapiens) (UniProt Q9HAZ1); details: Compound concentration 1000.0 nM
[39] = molecular target: Calcium/calmodulin-dependent protein kinase type 1D (Homo sapiens) (UniProt Q8IU85); details: Compound concentration 1000.0 nM
[40] = tested on: Proto-oncogene tyrosine-protein kinase receptor Ret (Homo sapiens), P07949 [M918T]; details: Compound concentration 1000.0 nM
[41] = molecular target: SRSF protein kinase 3 (Homo sapiens) (UniProt Q9UPE1); details: Compound concentration 1000.0 nM
[42] = molecular target: Homeodomain-interacting protein kinase 2 (Homo sapiens) (UniProt Q9H2X6); details: Compound concentration 1000.0 nM
[43] = molecular target: Serine/threonine-protein kinase Nek7 (Homo sapiens) (UniProt Q8TDX7); details: Compound concentration 1000.0 nM
[44] = molecular target: cAMP-dependent protein kinase catalytic subunit beta (Homo sapiens) (UniProt P22694); details: Compound concentration 1000.0 nM

Chain of Ribosomal protein S6 kinase alpha-1 (Homo sapiens) (Q15418 whole entry): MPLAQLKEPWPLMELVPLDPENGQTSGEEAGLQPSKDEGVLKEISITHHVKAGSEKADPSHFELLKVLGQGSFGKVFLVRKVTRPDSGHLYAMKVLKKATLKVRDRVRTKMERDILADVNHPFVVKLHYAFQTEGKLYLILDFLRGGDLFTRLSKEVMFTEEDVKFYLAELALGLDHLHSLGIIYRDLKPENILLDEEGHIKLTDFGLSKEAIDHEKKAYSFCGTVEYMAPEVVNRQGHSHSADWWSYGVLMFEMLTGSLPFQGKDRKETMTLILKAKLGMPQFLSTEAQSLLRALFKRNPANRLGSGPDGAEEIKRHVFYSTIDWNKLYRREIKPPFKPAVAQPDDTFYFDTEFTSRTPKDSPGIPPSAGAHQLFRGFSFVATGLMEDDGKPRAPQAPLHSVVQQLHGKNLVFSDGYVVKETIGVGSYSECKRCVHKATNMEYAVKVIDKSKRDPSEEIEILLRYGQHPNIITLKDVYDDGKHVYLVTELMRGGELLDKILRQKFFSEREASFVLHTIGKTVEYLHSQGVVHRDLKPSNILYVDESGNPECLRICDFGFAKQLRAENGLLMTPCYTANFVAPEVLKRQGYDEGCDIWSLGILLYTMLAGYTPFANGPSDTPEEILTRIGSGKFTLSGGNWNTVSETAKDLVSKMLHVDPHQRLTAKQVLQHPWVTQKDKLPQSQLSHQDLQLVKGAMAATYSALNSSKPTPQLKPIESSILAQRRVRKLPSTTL
Chain of Serine/threonine-protein kinase PAK 1 (Homo sapiens) (Q13153 whole entry): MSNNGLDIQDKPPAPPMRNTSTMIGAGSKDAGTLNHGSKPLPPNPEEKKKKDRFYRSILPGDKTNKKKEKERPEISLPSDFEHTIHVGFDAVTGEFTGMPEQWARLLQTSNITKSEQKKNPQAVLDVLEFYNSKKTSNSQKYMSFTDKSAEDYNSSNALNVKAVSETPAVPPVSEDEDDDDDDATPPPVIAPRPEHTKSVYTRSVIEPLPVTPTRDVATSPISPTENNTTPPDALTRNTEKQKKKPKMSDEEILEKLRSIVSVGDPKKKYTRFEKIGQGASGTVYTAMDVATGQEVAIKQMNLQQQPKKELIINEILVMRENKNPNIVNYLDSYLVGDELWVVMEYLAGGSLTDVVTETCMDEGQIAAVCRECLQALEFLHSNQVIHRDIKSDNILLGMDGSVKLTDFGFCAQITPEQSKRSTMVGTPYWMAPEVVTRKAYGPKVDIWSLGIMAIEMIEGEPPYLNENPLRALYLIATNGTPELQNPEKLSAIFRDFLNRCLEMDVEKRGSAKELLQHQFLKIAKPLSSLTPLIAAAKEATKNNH
Chain of MAP kinase-interacting serine/threonine-protein kinase 1 (Homo sapiens) (Q9BUB5 whole entry, looked up): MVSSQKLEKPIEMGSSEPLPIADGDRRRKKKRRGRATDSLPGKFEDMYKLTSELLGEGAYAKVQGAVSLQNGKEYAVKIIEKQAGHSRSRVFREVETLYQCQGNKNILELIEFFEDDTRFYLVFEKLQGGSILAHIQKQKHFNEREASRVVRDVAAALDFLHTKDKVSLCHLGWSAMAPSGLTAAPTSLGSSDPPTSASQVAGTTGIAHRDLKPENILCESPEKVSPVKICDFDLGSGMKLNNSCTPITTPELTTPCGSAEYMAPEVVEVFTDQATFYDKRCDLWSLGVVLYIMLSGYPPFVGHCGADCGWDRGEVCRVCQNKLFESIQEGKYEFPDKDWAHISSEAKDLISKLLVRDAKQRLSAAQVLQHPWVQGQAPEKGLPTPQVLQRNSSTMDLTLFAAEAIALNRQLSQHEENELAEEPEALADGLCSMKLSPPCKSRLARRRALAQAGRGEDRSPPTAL
Chain of SRSF protein kinase 3 (Homo sapiens) (Q9UPE1 whole entry): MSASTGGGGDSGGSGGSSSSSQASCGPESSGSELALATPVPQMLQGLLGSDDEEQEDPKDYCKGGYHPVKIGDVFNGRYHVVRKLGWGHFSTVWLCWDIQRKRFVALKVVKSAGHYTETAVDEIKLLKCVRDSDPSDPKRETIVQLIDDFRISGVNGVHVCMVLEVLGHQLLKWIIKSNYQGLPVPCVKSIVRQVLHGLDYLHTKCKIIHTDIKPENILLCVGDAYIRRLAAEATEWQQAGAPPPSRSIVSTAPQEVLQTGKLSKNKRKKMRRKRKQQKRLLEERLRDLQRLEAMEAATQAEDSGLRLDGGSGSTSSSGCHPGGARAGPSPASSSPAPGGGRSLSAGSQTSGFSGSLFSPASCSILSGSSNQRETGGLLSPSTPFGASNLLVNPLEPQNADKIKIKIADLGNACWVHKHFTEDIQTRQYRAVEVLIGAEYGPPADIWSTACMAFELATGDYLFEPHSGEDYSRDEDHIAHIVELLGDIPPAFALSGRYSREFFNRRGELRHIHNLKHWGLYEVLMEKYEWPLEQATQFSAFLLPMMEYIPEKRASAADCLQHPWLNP
Chain of Mitogen-activated protein kinase kinase kinase 1 (Homo sapiens) (Q13233 whole entry): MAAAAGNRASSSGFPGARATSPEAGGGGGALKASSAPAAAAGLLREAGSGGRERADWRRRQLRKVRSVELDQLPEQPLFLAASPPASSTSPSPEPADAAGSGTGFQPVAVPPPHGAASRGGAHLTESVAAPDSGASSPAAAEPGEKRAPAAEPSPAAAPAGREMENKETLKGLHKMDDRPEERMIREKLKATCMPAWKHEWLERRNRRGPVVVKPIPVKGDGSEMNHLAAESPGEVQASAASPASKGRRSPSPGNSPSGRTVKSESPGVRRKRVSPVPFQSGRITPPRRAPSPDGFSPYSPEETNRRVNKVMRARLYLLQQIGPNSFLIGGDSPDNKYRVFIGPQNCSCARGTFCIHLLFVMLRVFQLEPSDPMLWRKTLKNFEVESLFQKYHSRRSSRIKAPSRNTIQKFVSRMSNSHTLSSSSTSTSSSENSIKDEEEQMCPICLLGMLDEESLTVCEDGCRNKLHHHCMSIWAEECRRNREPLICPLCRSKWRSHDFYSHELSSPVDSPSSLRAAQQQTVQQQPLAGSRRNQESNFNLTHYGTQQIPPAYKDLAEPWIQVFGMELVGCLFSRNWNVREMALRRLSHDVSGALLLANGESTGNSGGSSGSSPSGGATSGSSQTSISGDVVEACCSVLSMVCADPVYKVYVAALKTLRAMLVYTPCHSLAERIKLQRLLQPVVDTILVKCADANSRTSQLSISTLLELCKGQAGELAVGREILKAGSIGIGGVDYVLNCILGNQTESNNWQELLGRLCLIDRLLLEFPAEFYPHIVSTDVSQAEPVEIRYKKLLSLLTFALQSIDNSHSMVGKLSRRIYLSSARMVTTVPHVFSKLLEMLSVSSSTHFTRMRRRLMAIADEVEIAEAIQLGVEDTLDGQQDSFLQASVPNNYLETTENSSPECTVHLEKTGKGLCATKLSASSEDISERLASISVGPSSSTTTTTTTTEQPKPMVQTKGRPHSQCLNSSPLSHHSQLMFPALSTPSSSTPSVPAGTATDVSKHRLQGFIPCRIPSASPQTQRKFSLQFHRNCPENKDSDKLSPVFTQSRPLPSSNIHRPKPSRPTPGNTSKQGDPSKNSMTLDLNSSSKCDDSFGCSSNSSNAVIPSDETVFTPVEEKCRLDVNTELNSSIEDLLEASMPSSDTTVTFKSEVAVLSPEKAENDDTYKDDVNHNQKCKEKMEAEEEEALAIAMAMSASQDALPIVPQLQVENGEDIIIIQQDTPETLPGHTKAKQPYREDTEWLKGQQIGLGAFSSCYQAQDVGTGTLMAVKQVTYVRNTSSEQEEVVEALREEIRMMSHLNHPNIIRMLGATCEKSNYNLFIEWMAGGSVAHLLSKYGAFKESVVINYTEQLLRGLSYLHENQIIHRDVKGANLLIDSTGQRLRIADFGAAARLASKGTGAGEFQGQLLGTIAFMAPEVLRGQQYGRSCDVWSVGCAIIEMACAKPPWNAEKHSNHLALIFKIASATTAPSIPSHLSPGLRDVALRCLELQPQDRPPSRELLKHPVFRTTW
Chain of Histamine H1 receptor (P35367 whole entry): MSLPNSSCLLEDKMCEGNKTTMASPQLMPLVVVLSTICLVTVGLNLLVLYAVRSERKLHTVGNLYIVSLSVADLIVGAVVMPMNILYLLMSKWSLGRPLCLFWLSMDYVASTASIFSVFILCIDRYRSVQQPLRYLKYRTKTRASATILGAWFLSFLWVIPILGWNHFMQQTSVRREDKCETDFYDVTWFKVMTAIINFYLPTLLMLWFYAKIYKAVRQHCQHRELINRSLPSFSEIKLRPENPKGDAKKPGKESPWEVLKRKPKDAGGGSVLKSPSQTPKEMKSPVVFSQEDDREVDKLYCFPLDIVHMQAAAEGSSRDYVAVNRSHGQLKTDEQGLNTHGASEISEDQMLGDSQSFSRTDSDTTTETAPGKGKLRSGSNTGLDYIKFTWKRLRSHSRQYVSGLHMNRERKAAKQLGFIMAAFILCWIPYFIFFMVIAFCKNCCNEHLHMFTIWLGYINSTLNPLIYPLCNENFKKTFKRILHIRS
Chain of MAP kinase-interacting serine/threonine-protein kinase 2 (Homo sapiens) (Q9HBH9 whole entry, looked up): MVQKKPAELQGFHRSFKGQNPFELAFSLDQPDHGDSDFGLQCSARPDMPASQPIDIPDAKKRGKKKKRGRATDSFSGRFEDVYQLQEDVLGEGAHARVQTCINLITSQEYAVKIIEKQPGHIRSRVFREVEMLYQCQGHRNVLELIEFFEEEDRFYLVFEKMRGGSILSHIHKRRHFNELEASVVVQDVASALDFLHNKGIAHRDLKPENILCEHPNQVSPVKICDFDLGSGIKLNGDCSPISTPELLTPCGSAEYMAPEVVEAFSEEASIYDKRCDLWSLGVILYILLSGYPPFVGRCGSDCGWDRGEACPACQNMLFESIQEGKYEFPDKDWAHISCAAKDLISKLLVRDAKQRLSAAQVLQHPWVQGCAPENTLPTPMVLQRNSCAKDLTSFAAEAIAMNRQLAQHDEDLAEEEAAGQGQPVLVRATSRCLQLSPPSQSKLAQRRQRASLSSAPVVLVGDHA

## CCCCN(CCCC)C(=O)CN1C[C@H](c2cc(OC)c3c(c2)OCO3)[C@@H](C(=O)O)[C@@H]1CC(C)(C)CCC [ABT-546]
[1]
  residual activity: 57.4%
[2]
  inhibition: 53.6%
[3]
  residual activity: 100%
[4]
  residual activity: 100%
[5]
  residual activity: 100%
[6]
  residual activity: 100%
[7]
  residual activity: 73.5%
[8]
  residual activity: 60.2%
[9]
  residual activity: 97.7%
[10]
  residual activity: 83%
[11]
  residual activity: 96.9%
[12]
  residual activity: 95.4%
[13]
  residual activity: 100%
[14]
  residual activity: 100%
[15]
  inhibition: 3.64%
[16]
  residual activity: 100%
[17]
  residual activity: 93.3%
[18]
  residual activity: 71.1%
[19]
  residual activity: 100%
[20]
  inhibition: 19.7%
[21]
  residual activity: 92.6%
[22]
  residual activity: 100%
[23]
  residual activity: 100%
[24]
  residual activity: 100%
[25]
  residual activity: 100%
[26]
  residual activity: 100%
[27]
  residual activity: 54.9%
[28]
  residual activity: 100%
[29]
  residual activity: 100%
[30]
  residual activity: 100%
[31]
  residual activity: 100%
[32]
  residual activity: 65.3%
[33]
  residual activity: 100%
[34]
  residual activity: 100%
[35]
  residual activity: 94.3%
[36]
  residual activity: 50.8%
[37]
  residual activity: 71.8%
[38]
  residual activity: 100%
[39]
  residual activity: 100%
[40]
  residual activity: 100%
[41]
  residual activity: 100%
[42]
  residual activity: 82.3%
[43]
  residual activity: 100%
[44]
  residual activity: 100%

## CCCCN(CCCC)C(=O)CN1C[C@@H](c2cc(OC)c3c(c2)OCO3)[C@H](C(=O)O)[C@H]1CC(C)(C)CCC [A-545]
[1]
  residual activity: 100%
[2]
  inhibition: 47.4%
[3]
  residual activity: 98.5%
[4]
  residual activity: 92.5%
[5]
  residual activity: 94.3%
[6]
  residual activity: 100%
[7]
  residual activity: 100%
[8]
  residual activity: 99.3%
[9]
  residual activity: 91.3%
[10]
  residual activity: 96.5%
[11]
  residual activity: 100%
[12]
  residual activity: 84.8%
[13]
  residual activity: 100%
[14]
  residual activity: 87.7%
[15]
  inhibition: 27.1%
[16]
  residual activity: 81.3%
[17]
  residual activity: 100%
[18]
  residual activity: 95.4%
[19]
  residual activity: 100%
[20]
  inhibition: 8.52%
[21]
  residual activity: 85.5%
[22]
  residual activity: 89.4%
[23]
  residual activity: 100%
[24]
  residual activity: 99.4%
[25]
  residual activity: 100%
[26]
  residual activity: 100%
[27]
  residual activity: 85.4%
[28]
  residual activity: 95.9%
[29]
  residual activity: 82.4%
[30]
  residual activity: 84.2%
[31]
  residual activity: 100%
[32]
  residual activity: 83.2%
[33]
  residual activity: 100%
[34]
  residual activity: 100%
[35]
  residual activity: 100%
[36]
  residual activity: 87.6%
[37]
  residual activity: 97.8%
[38]
  residual activity: 72.4%
[39]
  residual activity: 94.4%
[40]
  residual activity: 100%
[41]
  residual activity: 100%
[42]
  residual activity: 97.1%
[43]
  residual activity: 86.6%
[44]
  residual activity: 100%
